Test results as given in PMC11665553, “12-Lipoxygenase inhibition delays onset of autoimmune diabetes in human gene replacement mice” (JCI Insight, 2024).
Values joined by “and” are separate entries in the source; they are usually repeats but may differ in a detail not shown here. Equal entries are not always repeated. “Also recorded” adds a separate entry of the source.

Tests used:
NOD.hALOX12 mice = experiment: Flow cytometry of pancreatic lymph nodes and spleen of NOD.hALOX12 mice; type: in vivo, mouse; set-up: FoxP3 / CD4 / IFNg / IL-17a: unit not given here; settings: for CD4 / FoxP3 / IFNg / IL-17a: flow cytometry, individual animals, listed as VLX
Procedure: Spleen and pLNs were harvested, homogenized, and passed through a 70 μm strainer to obtain a single-cell suspension. Cell pellets were resuspended in red blood cell (RBC) lysing solution to remove red blood cells. […] The following surface markers were used — CD4-FITC (BioLegend, 100510; 1:100), CD8–PerCP-Cy5.5 (BioLegend, 100734; 1:100), and CD19-AF700 (BioLegend, 152414; 1:100). Following incubation of surface antibodies, cells were washed with stain buffer and then permeabilized using fix/perm buffer (BD Biosciences, 554722) before intracellular staining. The following intracellular antibodies from BD Biosciences were used: FoxP3-AF647 (560401; 1:100), IFN-γ–PE (554412; 1:50), and IL-17a–APCCY7 (560821; 1:50). Cells were analyzed on the Attune NxT Flow Cytometer (Thermo Fisher Scientific). Data were analyzed by FlowJo software (BD Biosciences).

human islets = tested on: human islets; set-up: method as in PMID 28609824; settings: cited from earlier work
B6.hALOX12 mice = experiment: Multiple low-dose STZ-induced diabetes in B6.hALOX12 mice (random-fed blood glucose, GTT, β cell mass); settings: for Blood glucose (Fig 1H): individual animals; for Random-fed blood glucose (Fig 1E) / GTT blood glucose (Fig 1F): hAlox12 mice, listed as ML355, 30 mg/kg; for Random-fed blood glucose (Fig 1E): 30 mg/kg i.p. + STZ
Procedure: Intraperitoneal GTTs (IPGTTs) were performed in mice after overnight fasting (16 hours). Mice were i.p. injected with glucose at a dose of 1 or 2 g/kg body weight and blood glucose levels were measured at specific time points: 0, 10, 20, 30, 60, 90, and 120 minutes after glucose injection using an AlphaTrak glucometer.
Random-fed glucose levels were measured by tail snip using a glucometer (AlphaTrak), and mice were followed for 20 days after STZ injections. IPGTT was performed on day 4 after STZ treatments after overnight fasting.

[1] = female NOD.hALOX12 mice, 30 mg/kg p.o., 4 weeks
[2] = B6.hALOX12 mice, 30 mg/kg p.o., STZ

In the case of COc1cccc(CNc2ccc(S(=O)(=O)Nc3nc4ccccc4s3)cc2)c1O [VLX-1005], the “CD4+Foxp3+ regulatory T cells in pancreatic lymph nodes” value (NOD.hALOX12 mice; [1]) is reported as “increase”, the Tregs in spleen (NOD.hALOX12 mice; [1]) is reported as “no changes” and the CD4 (NOD.hALOX12 mice; sheet SFig 2C) is reported as 65.7 and 58.8 and 61.4 and 58 and 54.2. For the same compound, the FoxP3 (NOD.hALOX12 mice; sheet SFig 2C) was 4.31 and 7.46 and 5.24 and 7.28 and 5.6, the IFNg (NOD.hALOX12 mice; sheet SFig 2C) was 0.037 and 0.092 and 0.047 and 0.058 and 0.044 and the IL-17a (NOD.hALOX12 mice; sheet SFig 2C) was 2.96 and 5.74 and 6.17 and 6.96 and 7.02. The CD4 (NOD.hALOX12 mice; sheet SFig 2D) was 46.2 and 45.1 and 46.1 and 45.5 and 43.7, the FoxP3 (NOD.hALOX12 mice; sheet SFig 2D) was 8.7 and 7.15 and 4.07 and 12.1 and 9.49 and the IFNg (NOD.hALOX12 mice; sheet SFig 2D) was 0.36 and 0.33 and 0.39 and 0.29 and 0.4. For the same compound, the IL-17a (NOD.hALOX12 mice; sheet SFig 2D) was 3.2, the “Cytotoxicity in human islets” value (human islets) was “without evidence of cytotoxicity” and the “Effect on function of cytokine-treated human islets in vitro” value (human islets; proinflammatory cytokines) was “efficacy in reversing the insulin secretory defects; also recorded: protect human islets in vitro against dysfunction caused by proinflammatory cytokines”. For the same compound, the “Glucose tolerance vs vehicle” value (B6.hALOX12 mice; [2]) was “significantly improved glucose tolerance”, the “Random-fed blood glucose levels vs vehicle” value (B6.hALOX12 mice; [2]) was “lower random-fed blood glucose levels” and the “β cell mass at end of study vs vehicle” value (B6.hALOX12 mice; [2]) was “greater β cell mass”. For the same compound, the “GTT AUC (Fig 1J)” value (B6.hALOX12 mice; B6.hALOX12 mice, 30 mg/kg p.o., day 4 after STZ, individual mice, 30 mg/kg) was 38575 and 27605 and 37915 and 32740 and 28655 and 39615, the “β cell mass (Fig 1K)” value (B6.hALOX12 mice; B6.hALOX12 mice, 30 mg/kg p.o., day 26 after STZ, individual mice, listed as VLX, 30 mg/kg) was 0.4287 and 0.8456 and 0.5623 and 0.6492 and 1.024 and the “Glucose tolerance (GTT)” value (B6.hALOX12 mice; B6.hALOX12 vs WT C57BL/6J mice, both 30 mg/kg i.p., after STZ) was “improved glucose tolerance”. The “Blood glucose (Fig 1H)” value (B6.hALOX12 mice; day 1) was 293 and 265 and 377 and 281 and 389 and 367, the “Blood glucose (Fig 1H)” value (B6.hALOX12 mice; day 4) was 209 and 312 and 289 and 205 and 311 and 272 and the “Blood glucose (Fig 1H)” value (B6.hALOX12 mice; day 8) was 346 and 273 and 297 and 307 and 219 and 303. The “Blood glucose (Fig 1H)” value (B6.hALOX12 mice; day 11) was 435 and 460 and 385 and 378 and 441 and 298, the “Blood glucose (Fig 1H)” value (B6.hALOX12 mice; day 16) was 427 and 543 and 470 and 301 and 405 and 380 and the “Blood glucose (Fig 1H)” value (B6.hALOX12 mice; day 18) was 571 and 573 and 426 and 374 and 417 and 346. For the same compound, the “Blood glucose (Fig 1H)” value (B6.hALOX12 mice; day 23) was 474 and 543 and 550 and 331 and 533 and 356, the “Blood glucose (Fig 1H)” value (B6.hALOX12 mice; day 25) was 630 and 501 and 416 and 359 and 457 and 307 and the “Blood glucose (Fig 1H)” value (B6.hALOX12 mice; day 28) was 426 and 551 and 530 and 363 and 483 and 470. For the same compound, the “Blood glucose (Fig 1H)” value (B6.hALOX12 mice; day -3) was 296 and 262 and 381 and 299 and 367 and 314, the “GTT AUC (Fig 1G)” value (B6.hALOX12 mice; hALOX12 mice, 30 mg/kg i.p., day 4 after STZ, individual mice, 30 mg/kg) was 24945 and 29635 and 27915 and 36735 and the “Random-fed blood glucose (Fig 1E)” value (B6.hALOX12 mice; day 0, individual mice) was 184 and 194 and 153 and 159. For the same compound, the “Random-fed blood glucose (Fig 1E)” value (B6.hALOX12 mice; day 5, individual mice) was 174 and 179 and 181 and 131, the “Random-fed blood glucose (Fig 1E)” value (B6.hALOX12 mice; day 10, individual mice) was 195 and 201 and 210 and 180 and the “Random-fed blood glucose (Fig 1E)” value (B6.hALOX12 mice; day 15, individual mice) was 167 (2×) and 210 and 214. The “Random-fed blood glucose (Fig 1E)” value (B6.hALOX12 mice; day 22, individual mice) was 193 and 223 and 208 and 188, the “Random-fed blood glucose (Fig 1E)” value (B6.hALOX12 mice; day 27, individual mice) was 216 and 217 and 226 and 193 and the “Random-fed blood glucose (Fig 1E)” value (B6.hALOX12 mice; day -5, individual mice) was 194 and 201 and 167 and 185. The “GTT blood glucose (Fig 1F)” value (B6.hALOX12 mice; 30 mg/kg i.p., day 4 after STZ, 0 min after glucose, individual mice) was 184 and 132 and 122 and 134, the “GTT blood glucose (Fig 1F)” value (B6.hALOX12 mice; 30 mg/kg i.p., day 4 after STZ, 10 min after glucose, individual mice) was 401 and 364 and 354 and 369 and the “GTT blood glucose (Fig 1F)” value (B6.hALOX12 mice; 30 mg/kg i.p., day 4 after STZ, 20 min after glucose, individual mice) was 610 and 557 and 487 and 467. The “GTT blood glucose (Fig 1F)” value (B6.hALOX12 mice; 30 mg/kg i.p., day 4 after STZ, 30 min after glucose, individual mice) was 512 and 597 and 398 and 458 and the “GTT blood glucose (Fig 1F)” value (B6.hALOX12 mice; 30 mg/kg i.p., day 4 after STZ, 60 min after glucose, individual mice) was 361 and 446 and 310 and 375.
